Data on 3 compounds can be found in patent US11208412B2 (DAEGU-GYEONGBUK MEDICAL INNOVATION FOUNDATION, priority 2017, dated 2021).

Structures are written as SMILES.

Common to all, as to experiment: Kinase selectivity, DiscoverX scanMAX Kinase assay panel (% control)
Common to all, as to assay type: binding

The target of test [1] is T1, kinases of the scanMAX Kinase assay panel (Homo sapiens, UniProt Q9H1R3).
T1 construct: purchased DiscoverX Co. (contract measurement) scanMAX Kinase assay panel
T1 sequence (Q9H1R3 whole entry): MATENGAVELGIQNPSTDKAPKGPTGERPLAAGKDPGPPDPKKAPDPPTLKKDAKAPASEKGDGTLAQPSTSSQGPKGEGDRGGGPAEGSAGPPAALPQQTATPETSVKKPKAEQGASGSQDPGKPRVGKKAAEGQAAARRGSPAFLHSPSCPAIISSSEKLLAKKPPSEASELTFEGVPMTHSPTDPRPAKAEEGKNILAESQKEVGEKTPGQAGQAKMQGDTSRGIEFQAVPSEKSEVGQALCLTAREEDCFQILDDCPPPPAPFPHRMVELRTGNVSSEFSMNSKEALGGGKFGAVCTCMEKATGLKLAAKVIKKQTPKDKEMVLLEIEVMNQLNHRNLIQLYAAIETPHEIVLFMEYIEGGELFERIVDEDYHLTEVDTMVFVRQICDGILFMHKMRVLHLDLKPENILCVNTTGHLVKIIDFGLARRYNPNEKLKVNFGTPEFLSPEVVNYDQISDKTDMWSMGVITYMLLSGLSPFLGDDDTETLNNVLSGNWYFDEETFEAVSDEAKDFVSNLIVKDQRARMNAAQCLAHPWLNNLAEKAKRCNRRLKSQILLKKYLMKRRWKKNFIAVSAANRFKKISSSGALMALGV
To be noted: MYLK2; 1 uM. The procedure, abridged:
(§1)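 Binding-panel profiling at one concentration, 1 uM in DMSO; values are % of DMSO control after subtracting the positive-control floor. Less than 35% means activity on that kinase.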

Test [2] has as its target T2, kinases of the scanMAX Kinase assay panel (Homo sapiens, UniProt P41240).
T2 construct: purchased DiscoverX Co. (contract measurement) scanMAX Kinase assay panel
The following applies: CSK; 1 uM. The procedure, abridged:
as §1

Test [3] deals with T3, kinases of the scanMAX Kinase assay panel (Homo sapiens, UniProt P06213).
T3 construct: purchased DiscoverX Co. (contract measurement) scanMAX Kinase assay panel
T3 sequence (P06213 28-1382): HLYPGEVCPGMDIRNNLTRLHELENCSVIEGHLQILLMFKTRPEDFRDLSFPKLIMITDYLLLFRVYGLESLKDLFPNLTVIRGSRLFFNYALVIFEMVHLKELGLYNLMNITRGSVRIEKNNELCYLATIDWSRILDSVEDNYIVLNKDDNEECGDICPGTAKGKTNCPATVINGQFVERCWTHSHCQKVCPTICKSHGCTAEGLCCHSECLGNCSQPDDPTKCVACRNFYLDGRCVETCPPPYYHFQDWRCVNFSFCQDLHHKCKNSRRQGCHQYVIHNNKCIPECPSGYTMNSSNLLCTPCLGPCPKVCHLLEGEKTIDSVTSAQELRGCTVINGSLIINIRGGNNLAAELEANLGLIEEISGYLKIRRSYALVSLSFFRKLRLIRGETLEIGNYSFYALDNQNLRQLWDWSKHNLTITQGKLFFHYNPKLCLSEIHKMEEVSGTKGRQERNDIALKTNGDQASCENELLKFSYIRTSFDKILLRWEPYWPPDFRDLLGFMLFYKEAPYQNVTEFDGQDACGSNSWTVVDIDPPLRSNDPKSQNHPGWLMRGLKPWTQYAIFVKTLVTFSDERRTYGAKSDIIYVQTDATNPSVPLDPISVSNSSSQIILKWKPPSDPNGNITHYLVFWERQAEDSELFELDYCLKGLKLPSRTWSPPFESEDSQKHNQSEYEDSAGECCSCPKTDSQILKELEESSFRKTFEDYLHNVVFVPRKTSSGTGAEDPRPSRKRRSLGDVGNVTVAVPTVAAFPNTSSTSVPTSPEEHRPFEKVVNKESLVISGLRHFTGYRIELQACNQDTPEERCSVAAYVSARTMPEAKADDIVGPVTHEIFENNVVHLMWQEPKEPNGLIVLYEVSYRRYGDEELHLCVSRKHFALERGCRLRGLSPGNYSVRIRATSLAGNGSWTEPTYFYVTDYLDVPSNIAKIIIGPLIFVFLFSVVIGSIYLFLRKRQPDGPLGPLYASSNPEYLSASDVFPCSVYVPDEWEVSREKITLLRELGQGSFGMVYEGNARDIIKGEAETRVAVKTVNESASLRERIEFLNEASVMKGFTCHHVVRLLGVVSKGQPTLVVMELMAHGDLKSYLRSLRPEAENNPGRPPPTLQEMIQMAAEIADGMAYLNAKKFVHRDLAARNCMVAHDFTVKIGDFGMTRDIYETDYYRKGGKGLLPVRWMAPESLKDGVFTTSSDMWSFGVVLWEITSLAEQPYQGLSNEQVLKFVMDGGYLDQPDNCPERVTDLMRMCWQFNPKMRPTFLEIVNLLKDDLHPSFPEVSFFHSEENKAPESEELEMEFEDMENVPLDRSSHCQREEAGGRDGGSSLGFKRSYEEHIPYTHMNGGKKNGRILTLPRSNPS
The following applies: INSR; 1 uM. The gist of the method:
as §1

Test [4] addresses T4, kinases of the scanMAX Kinase assay panel (Homo sapiens, UniProt P51813).
T4 construct: purchased DiscoverX Co. (contract measurement) scanMAX Kinase assay panel
T4 sequence (P51813 1-675): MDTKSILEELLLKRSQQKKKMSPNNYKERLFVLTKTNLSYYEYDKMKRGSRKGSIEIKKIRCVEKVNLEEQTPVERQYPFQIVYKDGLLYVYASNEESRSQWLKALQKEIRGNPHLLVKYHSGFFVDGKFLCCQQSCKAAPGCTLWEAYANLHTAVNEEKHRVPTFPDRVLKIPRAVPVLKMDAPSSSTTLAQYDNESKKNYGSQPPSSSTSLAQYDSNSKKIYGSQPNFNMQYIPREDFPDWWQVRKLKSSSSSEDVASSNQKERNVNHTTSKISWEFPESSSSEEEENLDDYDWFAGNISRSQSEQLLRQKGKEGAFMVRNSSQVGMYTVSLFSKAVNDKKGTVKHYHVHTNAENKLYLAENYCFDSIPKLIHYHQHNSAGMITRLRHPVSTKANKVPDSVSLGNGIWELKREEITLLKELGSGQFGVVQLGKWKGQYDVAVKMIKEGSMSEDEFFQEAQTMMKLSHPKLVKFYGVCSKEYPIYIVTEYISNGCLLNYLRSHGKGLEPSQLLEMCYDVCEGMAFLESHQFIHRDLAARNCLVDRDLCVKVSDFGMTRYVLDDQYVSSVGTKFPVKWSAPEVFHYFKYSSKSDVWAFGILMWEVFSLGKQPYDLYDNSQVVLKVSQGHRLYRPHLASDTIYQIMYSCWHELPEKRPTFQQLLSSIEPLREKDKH
To be noted: BMX; 1 uM. The procedure, abridged: as §1

Test [5] has as its target T5, kinases of the scanMAX Kinase assay panel (Homo sapiens, UniProt P43403).
T5 construct: purchased DiscoverX Co. (contract measurement) scanMAX Kinase assay panel
T5 sequence (P43403 1-619): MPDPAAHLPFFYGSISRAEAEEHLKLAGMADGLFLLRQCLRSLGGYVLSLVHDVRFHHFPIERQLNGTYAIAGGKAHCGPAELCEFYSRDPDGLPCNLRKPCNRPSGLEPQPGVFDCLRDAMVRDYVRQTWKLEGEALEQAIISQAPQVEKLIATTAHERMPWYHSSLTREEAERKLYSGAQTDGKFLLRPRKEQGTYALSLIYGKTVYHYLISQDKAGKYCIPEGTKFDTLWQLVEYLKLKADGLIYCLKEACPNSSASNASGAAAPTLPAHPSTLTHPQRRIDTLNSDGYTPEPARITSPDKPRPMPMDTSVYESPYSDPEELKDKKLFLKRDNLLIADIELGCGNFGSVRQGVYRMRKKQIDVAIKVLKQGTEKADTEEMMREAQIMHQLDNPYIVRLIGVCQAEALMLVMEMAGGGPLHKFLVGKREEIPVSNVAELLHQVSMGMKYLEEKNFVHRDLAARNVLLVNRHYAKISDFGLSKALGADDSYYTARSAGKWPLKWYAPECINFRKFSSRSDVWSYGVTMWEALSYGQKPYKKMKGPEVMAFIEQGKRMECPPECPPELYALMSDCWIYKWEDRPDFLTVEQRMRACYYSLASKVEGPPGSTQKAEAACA
To be noted: kinase ZAP70; 1 uM in DMSO. The gist of the method: as §1

For test [6], the target named is T6, kinases of the scanMAX Kinase assay panel (Homo sapiens, UniProt P36894).
T6 construct: purchased DiscoverX Co. (contract measurement) scanMAX Kinase assay panel
T6 sequence (P36894 24-532): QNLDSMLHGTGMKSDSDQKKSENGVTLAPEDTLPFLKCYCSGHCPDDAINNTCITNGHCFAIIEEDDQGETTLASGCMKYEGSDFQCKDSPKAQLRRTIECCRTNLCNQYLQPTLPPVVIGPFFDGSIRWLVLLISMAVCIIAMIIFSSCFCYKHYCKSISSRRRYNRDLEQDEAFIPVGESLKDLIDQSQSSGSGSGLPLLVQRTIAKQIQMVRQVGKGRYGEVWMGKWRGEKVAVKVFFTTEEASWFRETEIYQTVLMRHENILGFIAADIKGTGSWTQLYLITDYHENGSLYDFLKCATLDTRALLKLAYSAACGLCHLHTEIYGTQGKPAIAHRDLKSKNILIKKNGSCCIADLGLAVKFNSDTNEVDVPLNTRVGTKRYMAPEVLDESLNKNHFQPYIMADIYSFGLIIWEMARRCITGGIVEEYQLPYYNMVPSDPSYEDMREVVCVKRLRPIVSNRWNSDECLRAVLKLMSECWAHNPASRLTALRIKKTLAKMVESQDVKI
To be noted: BMPR1A; 1 uM. The procedure, abridged:
as §1

Test [7] concerns the target T7, kinases of the scanMAX Kinase assay panel (Homo sapiens, UniProt Q52WX2).
T7 construct: purchased DiscoverX Co. (contract measurement) scanMAX Kinase assay panel
The following applies: kinase SBK1; 1 uM in DMSO. The procedure, abridged: as §1

For test [8], the target named is T8, kinases of the scanMAX Kinase assay panel (Homo sapiens, UniProt Q9Y463).
T8 construct: purchased DiscoverX Co. (contract measurement) scanMAX Kinase assay panel
To be noted: DYRK1B; 1 uM. The gist of the method:
as §1

For test [9], the target named is T9, kinases of the scanMAX Kinase assay panel (Homo sapiens, UniProt Q9BVS4).
T9 construct: purchased DiscoverX Co. (contract measurement) scanMAX Kinase assay panel
T9 sequence (Q9BVS4 whole entry): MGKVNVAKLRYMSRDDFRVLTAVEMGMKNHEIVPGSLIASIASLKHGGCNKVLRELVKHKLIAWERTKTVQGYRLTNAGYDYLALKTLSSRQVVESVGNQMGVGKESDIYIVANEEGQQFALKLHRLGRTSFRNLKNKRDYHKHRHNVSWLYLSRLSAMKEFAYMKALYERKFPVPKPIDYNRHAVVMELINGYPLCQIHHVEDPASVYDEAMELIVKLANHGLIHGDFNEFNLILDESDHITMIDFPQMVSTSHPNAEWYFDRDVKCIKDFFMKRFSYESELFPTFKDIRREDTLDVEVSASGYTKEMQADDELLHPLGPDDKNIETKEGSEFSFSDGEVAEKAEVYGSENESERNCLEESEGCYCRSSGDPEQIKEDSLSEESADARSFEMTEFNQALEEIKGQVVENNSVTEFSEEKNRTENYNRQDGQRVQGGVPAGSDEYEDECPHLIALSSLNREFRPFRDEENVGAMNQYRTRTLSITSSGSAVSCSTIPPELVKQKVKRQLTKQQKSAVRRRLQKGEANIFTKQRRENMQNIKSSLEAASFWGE
The following applies: kinase RIOK2; 1 uM in DMSO. The gist of the method: as §1

Test [10] concerns the target T10, kinases of the scanMAX Kinase assay panel (Homo sapiens, UniProt Q14004).
T10 construct: purchased DiscoverX Co. (contract measurement) scanMAX Kinase assay panel
The following applies: CDC2L5; 1 uM. The gist of the method:
as §1

In test [11] the target is T11, kinases of the scanMAX Kinase assay panel (Homo sapiens, UniProt P00519, F317I).
T11 construct: purchased DiscoverX Co. (contract measurement) scanMAX Kinase assay panel
T11 sequence (P00519 whole entry F317I): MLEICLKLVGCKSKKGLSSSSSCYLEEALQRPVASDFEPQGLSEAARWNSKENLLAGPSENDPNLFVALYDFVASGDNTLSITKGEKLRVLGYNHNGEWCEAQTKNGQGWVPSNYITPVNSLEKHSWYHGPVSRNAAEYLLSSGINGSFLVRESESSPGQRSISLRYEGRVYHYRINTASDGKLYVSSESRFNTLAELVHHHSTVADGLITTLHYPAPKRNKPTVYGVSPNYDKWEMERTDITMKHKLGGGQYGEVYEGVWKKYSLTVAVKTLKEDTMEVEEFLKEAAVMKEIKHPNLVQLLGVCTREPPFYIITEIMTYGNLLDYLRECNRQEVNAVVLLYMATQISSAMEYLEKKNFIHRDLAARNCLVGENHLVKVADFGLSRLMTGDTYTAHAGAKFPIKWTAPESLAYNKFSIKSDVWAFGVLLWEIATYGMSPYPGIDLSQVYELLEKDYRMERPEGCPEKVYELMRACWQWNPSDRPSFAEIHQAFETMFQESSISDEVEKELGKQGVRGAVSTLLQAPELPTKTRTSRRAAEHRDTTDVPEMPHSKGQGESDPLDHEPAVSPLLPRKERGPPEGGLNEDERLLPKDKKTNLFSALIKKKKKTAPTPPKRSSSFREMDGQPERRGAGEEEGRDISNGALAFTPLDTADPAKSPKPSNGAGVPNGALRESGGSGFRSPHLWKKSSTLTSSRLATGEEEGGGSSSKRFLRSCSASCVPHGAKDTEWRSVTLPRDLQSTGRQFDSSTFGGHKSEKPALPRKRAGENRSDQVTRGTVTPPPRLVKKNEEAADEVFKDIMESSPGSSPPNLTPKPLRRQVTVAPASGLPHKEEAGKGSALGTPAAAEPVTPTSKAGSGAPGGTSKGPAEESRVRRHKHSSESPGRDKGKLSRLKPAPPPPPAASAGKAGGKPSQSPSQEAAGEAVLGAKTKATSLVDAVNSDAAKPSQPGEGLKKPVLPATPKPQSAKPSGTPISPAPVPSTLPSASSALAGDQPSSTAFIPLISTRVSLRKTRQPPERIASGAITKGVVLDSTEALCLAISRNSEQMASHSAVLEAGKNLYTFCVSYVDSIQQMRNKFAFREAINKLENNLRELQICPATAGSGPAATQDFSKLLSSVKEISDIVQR
To be noted: 1 uM. The procedure, abridged: as §1

T7 sequence (Q52WX2 whole entry): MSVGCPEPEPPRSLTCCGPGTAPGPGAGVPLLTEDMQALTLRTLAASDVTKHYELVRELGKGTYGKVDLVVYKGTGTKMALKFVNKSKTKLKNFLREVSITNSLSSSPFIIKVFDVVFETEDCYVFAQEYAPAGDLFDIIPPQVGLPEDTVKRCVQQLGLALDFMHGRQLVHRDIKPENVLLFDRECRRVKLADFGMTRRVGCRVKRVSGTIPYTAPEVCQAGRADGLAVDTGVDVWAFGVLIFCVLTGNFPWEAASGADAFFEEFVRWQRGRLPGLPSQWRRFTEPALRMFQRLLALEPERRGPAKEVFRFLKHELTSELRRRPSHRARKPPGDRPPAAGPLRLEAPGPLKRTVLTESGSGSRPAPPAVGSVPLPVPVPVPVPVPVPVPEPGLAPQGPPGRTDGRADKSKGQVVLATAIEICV
T2 sequence (P41240 whole entry): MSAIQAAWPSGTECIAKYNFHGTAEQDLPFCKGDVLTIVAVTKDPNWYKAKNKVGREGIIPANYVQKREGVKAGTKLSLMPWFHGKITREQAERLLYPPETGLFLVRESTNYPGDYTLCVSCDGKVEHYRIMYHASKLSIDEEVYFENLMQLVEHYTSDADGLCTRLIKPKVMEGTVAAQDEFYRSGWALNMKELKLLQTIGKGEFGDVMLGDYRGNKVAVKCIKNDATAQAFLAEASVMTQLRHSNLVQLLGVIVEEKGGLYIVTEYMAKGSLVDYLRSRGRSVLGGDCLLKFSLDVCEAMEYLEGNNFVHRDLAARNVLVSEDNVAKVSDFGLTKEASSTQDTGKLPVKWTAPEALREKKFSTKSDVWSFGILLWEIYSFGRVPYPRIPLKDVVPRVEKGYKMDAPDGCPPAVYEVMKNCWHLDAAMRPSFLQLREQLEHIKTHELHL

With `CNc1nc(Nc2ccc(C(=O)N3CCOCC3)cc2OC)nc2[nH]cc(C#N)c12` [Example 1, 2-((2-methoxy-4-(morpholine-4-carbonyl)phenyl)amino)-4-(methylamino)-7H-pyrrolo[2,3-d]pyrimidine-5-carbonitrile], the remaining binding at 1 µM in test [1] came out at 88%; in [2] it was 99%; in test [3], 48%; in test [4], 93%; in test [5] it was 35%; in test [6] it was 94%. Also, the remaining binding at 1 µM in test [7] was 72%; in test [8] it was 13%; in [9], 47%; in test [10] it was 82%; in test [11] (ABL1(F317I)-nonphosphorylated) it was 99%; in test [11] (ABL1(F317I)-phosphorylated), 54%.
Turning to `CC1(Nc2nc(Nc3cnn([C@H]4CCN(C5COC5)C[C@@H]4F)c3Cl)nc3[nH]cc(C#N)c23)CC1` [Example 52, 2-((5-chloro-1-((3S,4S)-3-fluoro-1-(oxetane-3-yl)piperidine-4-yl)-1H-pyrazole-4-yl)amino)((1-methylcyclopropyl)amino)-7H-pyrrolo[2,3-d]pyrimidine-5-carbonitrile], the remaining binding at 1 µM in [1] was 100%; in test [2], 33%; in test [3], 0.35%; in [4], 39%; in test [5], 2.2%; in [6] it was 100%. Moreover, the remaining binding at 1 µM was determined as 21% in [7]; 0.55% in [8]; 1.1% in [9]; 97% in test [10]; 25% in test [11] (ABL1(F317I)-nonphosphorylated); 7.6% in [11] (ABL1(F317I)-phosphorylated).
With `CCNc1nc(Nc2ccc(C(=O)N3CCC(N4CCOCC4)CC3)cc2OC)nc2[nH]cc(C(F)(F)F)c12` [Example 104, (4-((4-(ethylamino)-5-(trifluoromethyl)-7H-pyrrolo[2,3-d]pyrimidine-2-yl)amino)-3-methoxyphenyl)(4-morpholinopiperidine-1-yl)methanone], the remaining binding at 1 µM in test [1] was 100%; in [2], 85%; in test [3], 7.1%; in test [4], 94%; in test [5] it was 100%; in [6], 100%. Besides, the remaining binding at 1 µM amounted to 100% in test [7]; 0% in [8]; 75% in test [9]; 100% in test [10]; 56% in test [11] (ABL1(F317I)-nonphosphorylated); 29% in test [11] (ABL1(F317I)-phosphorylated).
